In patent US20070015759A1, “Metasubstituted thiazolidinones, their manufacture and use as a drug” (priority 2004, published 2007):

Columns and labels:
[1] = target: T1, Recombinant human Plk-1 (6×His) (Homo sapiens, UniProt P53350); experiment: PLK enzyme assay (33P-γ-ATP incorporation into biotin casein, SPA beads); assay type: biochemical; details: 0.5 μM ATP, 0.7 μM casein, 90 minutes at room temperature, read-out: Inhibition PLK-1 IC50
T1 construct: 6xHis; made in house; host or cells: Hi5 insect cells, baculovirus
Procedure: Recombinant human Plk-1 (6×His) was purified from insect cells (Hi5) infected with a baculovirus.
10 ng (recombinant created, purified) PLK enzyme is incubated for 90 minutes at room temperature with biotin casein and 33P-γ-ATP as a sub-stratum in a volume of 15 μl in 384 well Greiner Small Volume Microtiterplates (final concentration in buffer: 660 ng/ ml PLK; 0.7 μM Casein, 0.5 μM ATP incl. 400 nCi/ml 33P-γ-ATP; 10 mM MgCl2, 1 mM MnCl2; 0.01% NP40; 1 mM DTT, Protease inhibitors; 0.1 mM Na2VO3 in 50 mM HEPES pH 7.5). At the end of the reaction a 5 μl stop solution (500 μM ATP; 500 mM EDTA; 1% triton ×100; 100 mg/ ml streptavidin coated SPA Beads in PBS) was added. After the microtiter plate is closed with foil, the beads are sedimented through centrifugation (10 min., 1500 rpm). The fixing of the 33P-γ-ATP in casein was set as a measure of the enzyme activity by β-Counting.
Test substances were introduced in various concentrations (0 μM, and in the range of 0.01-30 μM). The final concentration of the dimethylsulfoxide solvent in all concentrations amounted to 1.5%.

[2] = test system: human MaTu breast tumor cells; experiment: Proliferation assay (crystal violet staining); assay type: cell-based; details: 96 h, incubated for 4 days with test substance, read-out: Inhibition of tumor cell proliferation (MaTu) IC50
Procedure: Cultivated human MaTu breast tumor cells were spread on plates to a thickness of 5000 cells per measuring point in a 96-hole multititerplate in 200 μl of the appropriate growth medium. After 24 hours the cells of one plate (the zero-point plate) were stained with crystal violet (see below), while the medium of the other plates was replaced by fresh culture medium (200 μl), to which was added the test substances in various concentrations (0 μM and in the range of 0.01 to 30 μm; the final concentration of the dimethylsulfoxide solvent was 0.5%). The cells were incubated for 4 days in the presence of the test substances. The cell proliferation was determined by the staining of the cells with crystal violet. The cells were fixed by the addition of 20 μl per measuring point of an 11% glutaraldehyde solution for 15 minutes at room temperature. After the fixed cells were washed three times with water, the plates were dried at room temperature. The cells were stained by the addition of 100 μl per measuring point of a 0.1% crystal violet solution (pH set at pH3 through the addition of acetic acid). After the fixed cells were washed three times with water, the plates were dried at room temperature. The coloring was dissolved by the addition of 100 μl per measuring point of a 10% acetic acid solution. Extinction was determined photometrically at a wave length of 595 nm. The percentage change of the cell growth was calculated by normalizing the measured values at the extinction value of the zero-point plate (=0%) and the extinction of the untreated cells (0 μM) (=100%).

T1 sequence (P53350 whole entry): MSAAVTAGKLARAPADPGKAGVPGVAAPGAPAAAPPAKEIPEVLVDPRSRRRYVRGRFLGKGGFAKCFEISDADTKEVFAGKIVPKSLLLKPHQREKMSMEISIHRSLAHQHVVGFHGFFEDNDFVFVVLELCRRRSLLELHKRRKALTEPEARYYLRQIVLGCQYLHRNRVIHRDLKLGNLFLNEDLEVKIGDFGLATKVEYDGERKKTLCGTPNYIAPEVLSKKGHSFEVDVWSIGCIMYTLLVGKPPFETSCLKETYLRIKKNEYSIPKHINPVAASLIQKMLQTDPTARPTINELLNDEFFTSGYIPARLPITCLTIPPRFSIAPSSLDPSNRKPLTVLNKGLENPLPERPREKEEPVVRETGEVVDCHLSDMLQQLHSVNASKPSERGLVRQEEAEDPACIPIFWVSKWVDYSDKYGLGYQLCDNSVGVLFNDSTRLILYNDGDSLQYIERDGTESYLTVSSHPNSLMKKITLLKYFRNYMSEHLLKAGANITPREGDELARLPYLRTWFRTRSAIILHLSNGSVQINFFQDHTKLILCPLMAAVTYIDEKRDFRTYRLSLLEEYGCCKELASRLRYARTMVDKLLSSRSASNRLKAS

CCn1c(=C(C#N)C(=O)NCC(F)(F)F)sc(=CNc2cccc(CCN3CCCC3)c2)c1=O (mixture of isomers) [Example 30, 2-Cyano-2-[3-ethyl-4-oxo-5-[1-[3-(2-pyrrolidin-1-yl-ethyl)-phenylamino]-meth-(E/Z)-ylidene]-thiazolidin-(2-(E or Z))-ylidene]-N-(2,2,2-trifluoro-ethyl)-acetamide]
IC50 [1]: 0.016 µM
IC50 [2]: 0.2 µM

CCn1c(=C(C#N)C(=O)NCC(F)(F)F)sc(=CNc2cccc(NC(=O)C(C)(C)C)n2)c1=O (mixture of isomers) [Example 41, 2-Cyano-2-[5-[1-[6-(2,2-dimethyl-propionylamino)-pyridin-2-ylamino]-meth-(E/Z)-ylidene]-3-ethyl-4-oxo-thiazolidin-(2-(E or Z))-ylidene]-N-(2,2,2-trifluoro-ethyl)-acetamide]
IC50 [1]: 0.02 µM
IC50 [2]: 0.83 µM

CCNC(=O)C(C#N)=c1sc(=CNc2cccc(NC(=O)CN3CCCC3)c2)c(=O)n1CC (mixture of isomers) [Example 55, 2-Cyano-N-ethyl-2-[3-ethyl-4-oxo-5-[1-[3-(2-pyrrolidin-1-yl-acetylamino)-phenylamino]-meth-(E/Z)-ylidene]-thiazolidin-(2-(E or Z))-ylidene]-acetamide]
IC50 [1]: 0.15 µM
IC50 [2]: 0.78 µM

C#CCNC(=O)C(C#N)=c1sc(=CNc2ccc(F)c(NC(=O)C(C)(C)C)c2)c(=O)n1CC (mixture of isomers) [Example 63, 2-Cyano-2-[5-[1-[3-(2,2-dimethyl-propionylamino)-4-fluoro-phenylamino]-meth-(E/Z)-ylidene]-3-ethyl-4-oxo-thiazolidin-(2-(E or Z))-ylidene]-N-prop-2-ynyl-acetamide]
IC50 [1]: 0.1 µM
IC50 [2]: 0.65 µM

C#CCNC(=O)C(C#N)=c1sc(=CNc2cccc(OCCN(C)C)c2)c(=O)n1CC (mixture of isomers) [Example 126, 2-Cyano-2-[5-[1-[3-(2-dimethylamino-ethoxy)-phenylamino]-meth-(E/Z)-ylidene]-3-ethyl-4-oxo-thiazolidin-(2Z or E)-ylidene]-N-prop-2-ynyl-acetamide]
IC50 [1]: 0.022 µM
IC50 [2]: 0.59 µM

CCn1c(=C(C#N)C(=O)NCC(F)F)sc(=CNc2cccc(OCCN(C)C)c2)c1=O (mixture of isomers) [Example 127, 2-Cyano-N-(2,2-difluoro-ethyl)-2-[5-[1-[3-(2-dimethylamino-ethoxy)-phenylamino]-meth-(E/Z)-ylidene]-3-ethyl-4-oxo-thiazolidin-(2-(E or Z))-ylidene]-acetamide]
IC50 [1]: 0.024 µM
IC50 [2]: 0.33 µM

C#CCNC(=O)C(C#N)=c1sc(=CNc2ccc(OCCN(C)C)cc2)c(=O)n1CC [Comparison 307 from PCT/EP2004/ 012242, reference compound]
IC50 [1]: 0.071 µM
IC50 [2]: 1.7 µM

CCn1c(=C(C#N)C(=O)NCC(F)F)sc(=CNc2ccc(OCCN(C)C)cc2)c1=O [Comparison 310 from PCT/EP2004/ 012242, reference compound]
IC50 [1]: 0.074 µM
IC50 [2]: 5.6 µM

C#CCNC(=O)C(C#N)=c1sc(=CNc2ccc(C(=O)NCCN3CCCC3)c(NC(=O)C(C)(C)C)c2)c(=O)n1CC [Comparison 323 from PCT/EP2004/ 012242, reference compound]
IC50 [1]: 0.14 µM
IC50 [2]: 2.5 µM

CCn1c(=C(C#N)C(=O)NCC(F)(F)F)sc(=CNc2ccc(C(=O)NCCN3CCCC3)c(NC(=O)C(C)(C)C)c2)c1=O [Comparison 326 from PCT/EP2004/ 012242, reference compound]
IC50 [1]: 0.073 µM
IC50 [2]: 1.6 µM

CCn1c(=C(C#N)C(=O)NCC(F)(F)F)sc(=CNc2ccc(CCN3CCCC3)cc2)c1=O [Comparison 527 from PCT/EP2004/ 012242, reference compound]
IC50 [2]: 2.8 µM
